{"source": "patent US8859232B2", "about": "“Genetically encoded photomanipulation of protein and peptide activity” (The University of North Carolina at Chapel Hill, priority 2009, dated 2014)", "tested_on": "MEF cells expressing mVenus-tagged PA-Rac1", "assay": "Inhibitor studies: localized activation of PA-Rac1 in inhibitor-treated MEF cells", "format": "cell-based, mouse", "settings": "Blebbistatin 1 μM, Y-27632 10 μM; for effect of inhibitor on PA-Rac1 light-induced protrusion: FIG. 6C; for effect of inhibitor on the ability of Rac1 to specify the direction of movement: FIG. 6D", "procedure": "Inhibitor studies: MEF cells expressing mVenus-tagged PA-Rac1 were incubated with 1 μM myosin II inhibitor Blebbistatin, 1 μM MLCK inhibitor ML-7, or 10 μM ROCK inhibitor Y-27632 (Calbiochem). Cells underwent the cell shape changes previously described (Katsumi et al., J. Cell Biol. 158:153 (2002)) and then reached a stable state within 30 minutes. After this cells were irradiated with the 458 nm laser at a 10-μm spot to induce PA-Rac activation.\nProtrusion/retraction analysis: Fluorescence images of MEF cells expressing mVenus-tagged PA-Rac1 and its mutants were masked based on intensity thresholding to produce binary images. Regions of protrusion were isolated by subtracting the binary image at a given time point from that at time 0. Conversely the binary images of retraction were obtained. Areas not part of protrusions or retractions, those that overlapped the time 0 image, were obtained by subtracting the above two images from that at time 0. Each binary image was assigned a different color: red=protrusion, blue=retraction, green=area overlapping with time 0, and white=background. These operations were carried out using MetaMorph software.\nPolarity index calculation: To obtain the polarity index (cos θ) of the migrating MEF cells, X and Y coordinates were obtained for the centroid before movement (x0,y0), the centroid after movement (x1,y1), and for the center of the irradiation spot (x2,y2), using MetaMorph software. The cos and sin values of the angles were obtained using simple triangle calculations. First two angles were defined using an arbitrarily selected horizontal line θ1=angle between the arbitrary line and the line from (x0,y0) to (x1,y1), and θ2=angle between the arbitrary line and the line between (x0,y0) and (x2,y2). The cos used to characterize polarity (see FIG. 6) was obtained using the following formula: cos θ=cos(θ1−θ2)=cos θ1 cos θ2+sin θ1 sin θ2", "data": [{"smiles": "C[C@@H](N)[C@H]1CC[C@H](C(=O)Nc2ccncc2)CC1", "note": "[Y-27632]", "values": [{"measurement": "effect of inhibitor on PA-Rac1 light-induced protrusion", "result": "strongly reduced protrusion"}, {"measurement": "effect of inhibitor on the ability of Rac1 to specify the direction of movement", "result": "little effect"}]}, {"smiles": "Cc1ccc2c(c1)C(=O)C1(O)CCN(c3ccccc3)C1=N2", "note": "(stereo not shown) [Blebbistatin]", "values": [{"measurement": "effect of inhibitor on PA-Rac1 light-induced protrusion", "result": "little effect"}, {"measurement": "effect of inhibitor on the ability of Rac1 to specify the direction of movement", "result": "randomization of movement"}]}]}
